Data from patent publication US10829520B2, “Beta-hairpin peptidomimetics” (POLYPHOR AG, priority 2015, dated 2020).
Where a SMILES comes first, the peptide text is derived from it. Bridges are numbered along the chain shown (N, C = ends). [ ]: non-standard residue; d: D form. Pro(trans-4-F) = O=C(O)[C@@H]1C[C@@H](F)CN1; dHyp = O=C(O)[C@H]1C[C@H](O)CN1; Dab = NCC[C@H](N)C(=O)O

Experiments:
Assay type in all cases: cell-based
[1] = tested on: Acinetobacter baumannii 872842; conditions: 872842
[2] = tested on: Acinetobacter baumannii DSM 30008; conditions: DSM 30008
In short: (§1)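 Broth microdilution per CLSI, cation-adjusted MH-II medium, 0.002% (v/v) polysorbate 80 final. Approx. 10^6 CFU/mL inoculum, incubated 35° C for 18-20 h; MIC read as absence of visible growth.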

Escherichia coli 926415 = conditions: 926415
[3] = tested on: Escherichia coli ATCC 25922; conditions: ATCC 25922
In short: as §1

[4] = tested on: Klebsiella pneumoniae 968733; conditions: 968733
[5] = tested on: Klebsiella pneumoniae SSI #3010; conditions: SSI #3010
In short: as §1

[6] = tested on: Pseudomonas aeruginosa ATCC 27853; conditions: ATCC 27853
In short: as §1

[7] = tested on: human red blood cells (hRBC); test: Hemolysis of human red blood cells; conditions: red cells of human, 1 h, 100 μg/mL
In short: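 Percent lysis of washed human erythrocytes after 1 h at 37° C. with 100 μg/mL peptide, calculated from OD540 of 8-fold diluted supernatant as a fraction of the 2.5% Triton X-100 value.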

SMILES: CC(C)C[C@@H]1NC(=O)[C@@H](CC(C)C)NC(=O)[C@H](CCN)NC(=O)[C@@H](NC(=O)[C@H](CCN)NC(=O)[C@@H](NC(=O)[C@H](CCN)NC(=O)[C@H](CCN)NC(=O)[C@@H]2CSSC[C@H](NC(=O)[C@@H](N)Cc3c[nH]c4ccccc34)C(=O)N[C@@H](C(C)C)C(=O)N[C@@H](C)C(=O)N[C@@H](CO)C(=O)N3CCC[C@@H]3C(=O)N3C[C@H](F)C[C@H]3C(=O)N[C@@H](CC(C)C)C(=O)N[C@@H](CO)C(=O)N[C@@H](Cc3ccc(O)cc3)C(=O)N2)[C@@H](C)O)CCNC(=O)[C@H]([C@@H](C)O)NC(=O)[C@H](CCN)NC(=O)[C@H](CCN)NC1=O [Ex. 124] (H-WCVAS[dP][Pro(trans-4-F)]LSYC[Dab][Dab]T[Dab][Dab][Dab][dL]L[Dab][Dab]T; disulfide 2-11; lactam 16-C)
- Acinetobacter baumannii 872842 MIC [1]: 0.25 µg/mL
- Acinetobacter baumannii DSM 30008 MIC [2]: 0.125 µg/mL
- Escherichia coli 926415 MIC (Escherichia coli 926415): 0.125 µg/mL
- Escherichia coli ATCC 25922 MIC [3]: 0.0625 µg/mL
- Klebsiella pneumoniae 968733 MIC [4]: 0.5 µg/mL
- Klebsiella pneumoniae SSI #3010 MIC [5]: 0.125 µg/mL
- Pseudomonas aeruginosa ATCC 27853 MIC [6]: 0.5 µg/mL
- Hemolysis at 100 μg/mL [7]: 1%

SMILES: CC(C)C[C@@H]1NC(=O)[C@H](C)NC(=O)[C@H]2CCCN2C(=O)[C@H](CO)NC(=O)[C@H](C)NC(=O)[C@H](C(C)C)NC(=O)[C@@H](NC(=O)[C@@H](N)Cc2c[nH]c3ccccc23)CSSC[C@@H](C(=O)N[C@@H](CCN)C(=O)N[C@@H](CCN)C(=O)N[C@H](C(=O)N[C@@H](CCN)C(=O)N[C@H]2CCNC(=O)[C@H]([C@@H](C)O)NC(=O)[C@H](CCN)NC(=O)[C@H](CCN)NC(=O)[C@H](CC(C)C)NC(=O)[C@@H](CC(C)C)NC(=O)[C@H](CCN)NC2=O)[C@@H](C)O)NC(=O)[C@H](Cc2ccc(O)cc2)NC(=O)[C@H](CO)NC1=O [Ex. 125] (H-WCVAS[dP]ALSYC[Dab][Dab]T[Dab][Dab][Dab][dL]L[Dab][Dab]T; disulfide 2-11; lactam 16-C)
- Acinetobacter baumannii 872842 MIC [1]: 0.0625 µg/mL
- Acinetobacter baumannii DSM 30008 MIC [2]: 0.125 µg/mL
- Escherichia coli 926415 MIC (Escherichia coli 926415): 0.25 µg/mL
- Escherichia coli ATCC 25922 MIC [3]: 0.0625 µg/mL
- Klebsiella pneumoniae 968733 MIC [4]: 1 µg/mL
- Klebsiella pneumoniae SSI #3010 MIC [5]: 0.125 µg/mL
- Pseudomonas aeruginosa ATCC 27853 MIC [6]: 0.5 µg/mL
- Hemolysis at 100 μg/mL [7]: 1%

SMILES: CC(C)C[C@@H]1NC(=O)[C@H]([C@@H](C)O)NC(=O)[C@H]2CCCN2C(=O)[C@H](CO)NC(=O)[C@H](C)NC(=O)[C@H](C(C)C)NC(=O)[C@@H](NC(=O)[C@@H](N)Cc2c[nH]c3ccccc23)CSSC[C@@H](C(=O)NCC(=O)N[C@@H](CCN)C(=O)N[C@H](C(=O)N[C@@H](CCN)C(=O)N[C@H]2CCNC(=O)[C@H]([C@@H](C)O)NC(=O)[C@H](CCN)NC(=O)[C@H](CCN)NC(=O)[C@H](CC(C)C)NC(=O)[C@@H](CC(C)C)NC(=O)[C@H](CCN)NC2=O)[C@@H](C)O)NC(=O)[C@H](Cc2ccc(O)cc2)NC(=O)[C@H](CO)NC1=O [Ex. 126] (H-WCVAS[dP]TLSYCG[Dab]T[Dab][Dab][Dab][dL]L[Dab][Dab]T; disulfide 2-11; lactam 16-C)
- Acinetobacter baumannii 872842 MIC [1]: 0.125 µg/mL
- Acinetobacter baumannii DSM 30008 MIC [2]: 0.0625 µg/mL
- Escherichia coli 926415 MIC (Escherichia coli 926415): 0.5 µg/mL
- Escherichia coli ATCC 25922 MIC [3]: 0.0625 µg/mL
- Klebsiella pneumoniae 968733 MIC [4]: 0.5 µg/mL
- Klebsiella pneumoniae SSI #3010 MIC [5]: 0.0625 µg/mL
- Pseudomonas aeruginosa ATCC 27853 MIC [6]: 0.5 µg/mL
- Hemolysis at 100 μg/mL [7]: 1%

SMILES: CC(C)C[C@@H]1NC(=O)[C@H](CCN)NC(=O)[C@H]2CCCN2C(=O)[C@H](CO)NC(=O)[C@H](C)NC(=O)[C@H](C(C)C)NC(=O)[C@@H](NC(=O)[C@@H](N)Cc2c[nH]c3ccccc23)CSSC[C@@H](C(=O)N[C@@H](CCN)C(=O)N[C@@H](CCN)C(=O)N[C@H](C(=O)N[C@@H](CCN)C(=O)N[C@H]2CCNC(=O)[C@H]([C@@H](C)O)NC(=O)[C@H](CCN)NC(=O)[C@H](CCN)NC(=O)[C@H](CC(C)C)NC(=O)[C@@H](CC(C)C)NC(=O)[C@H](CCN)NC2=O)[C@@H](C)O)NC(=O)[C@H](Cc2ccc(O)cc2)NC(=O)[C@H](CO)NC1=O [Ex. 127] (H-WCVAS[dP][Dab]LSYC[Dab][Dab]T[Dab][Dab][Dab][dL]L[Dab][Dab]T; disulfide 2-11; lactam 16-C)
- Acinetobacter baumannii 872842 MIC [1]: 0.25 µg/mL
- Acinetobacter baumannii DSM 30008 MIC [2]: 0.25 µg/mL
- Escherichia coli 926415 MIC (Escherichia coli 926415): 2 µg/mL
- Escherichia coli ATCC 25922 MIC [3]: 1 µg/mL
- Klebsiella pneumoniae 968733 MIC [4]: 8 µg/mL
- Klebsiella pneumoniae SSI #3010 MIC [5]: 0.25 µg/mL
- Pseudomonas aeruginosa ATCC 27853 MIC [6]: 0.5 µg/mL
- Hemolysis at 100 μg/mL [7]: 1%

SMILES: CC(C)C[C@@H]1NC(=O)[C@@H](CC(C)C)NC(=O)[C@H](CCN)NC(=O)[C@@H](NC(=O)[C@H](CCN)NC(=O)[C@@H](NC(=O)[C@H](CCN)NC(=O)[C@H](CCN)NC(=O)[C@@H]2CSSC[C@H](NC(=O)[C@@H](N)Cc3c[nH]c4ccccc34)C(=O)N[C@@H](C(C)C)C(=O)N[C@@H](C)C(=O)N[C@@H](CO)C(=O)NCC(=O)N3CCC[C@H]3C(=O)N[C@@H](CC(C)C)C(=O)N[C@@H](CO)C(=O)N[C@@H](Cc3ccc(O)cc3)C(=O)N2)[C@@H](C)O)CCNC(=O)[C@H]([C@@H](C)O)NC(=O)[C@H](CCN)NC(=O)[C@H](CCN)NC1=O [Ex. 128] (H-WCVASGPLSYC[Dab][Dab]T[Dab][Dab][Dab][dL]L[Dab][Dab]T; disulfide 2-11; lactam 16-C)
- Acinetobacter baumannii 872842 MIC [1]: 0.25 µg/mL
- Acinetobacter baumannii DSM 30008 MIC [2]: 0.125 µg/mL
- Escherichia coli 926415 MIC (Escherichia coli 926415): 0.5 µg/mL
- Escherichia coli ATCC 25922 MIC [3]: 0.125 µg/mL
- Klebsiella pneumoniae 968733 MIC [4]: 4 µg/mL
- Klebsiella pneumoniae SSI #3010 MIC [5]: 0.125 µg/mL
- Pseudomonas aeruginosa ATCC 27853 MIC [6]: 0.5 µg/mL
- Hemolysis at 100 μg/mL [7]: 1%

SMILES: CC(C)C[C@@H]1NC(=O)[C@H](C)NC(=O)[C@H]2C[C@H](O)CN2C(=O)[C@H](CO)NC(=O)[C@H](C)NC(=O)[C@H](C(C)C)NC(=O)[C@@H](NC(=O)[C@@H](N)Cc2c[nH]c3ccccc23)CSSC[C@@H](C(=O)N[C@@H](CCN)C(=O)N[C@@H](CCN)C(=O)N[C@H](C(=O)N[C@@H](CCN)C(=O)N[C@H]2CCNC(=O)[C@H]([C@@H](C)O)NC(=O)[C@H](CCN)NC(=O)[C@H](CCN)NC(=O)[C@H](CC(C)C)NC(=O)[C@@H](CC(C)C)NC(=O)[C@H](CCN)NC2=O)[C@@H](C)O)NC(=O)[C@H](Cc2ccc(O)cc2)NC(=O)[C@H](CO)NC1=O [Ex. 129] (H-WCVAS[dHyp]ALSYC[Dab][Dab]T[Dab][Dab][Dab][dL]L[Dab][Dab]T; disulfide 2-11; lactam 16-C)
- Acinetobacter baumannii 872842 MIC [1]: 0.0625 µg/mL
- Acinetobacter baumannii DSM 30008 MIC [2]: 0.125 µg/mL
- Escherichia coli 926415 MIC (Escherichia coli 926415): 0.25 µg/mL
- Escherichia coli ATCC 25922 MIC [3]: 0.0625 µg/mL
- Klebsiella pneumoniae 968733 MIC [4]: 2 µg/mL
- Klebsiella pneumoniae SSI #3010 MIC [5]: 0.125 µg/mL
- Pseudomonas aeruginosa ATCC 27853 MIC [6]: 0.125 µg/mL
- Hemolysis at 100 μg/mL [7]: <1%

SMILES: CC(C)C[C@@H]1NC(=O)[C@@H](CC(C)C)NC(=O)[C@H](CCN)NC(=O)[C@@H](NC(=O)[C@H](CCN)NC(=O)[C@@H](NC(=O)[C@H](CCN)NC(=O)CNC(=O)[C@@H]2CSSC[C@H](NC(=O)[C@@H](N)Cc3c[nH]c4ccccc34)C(=O)N[C@@H](C(C)C)C(=O)N[C@@H](C)C(=O)N[C@@H](CO)C(=O)N[C@H](CO)C(=O)N3CCC[C@H]3C(=O)N[C@@H](CC(C)C)C(=O)N[C@@H](CO)C(=O)N[C@@H](Cc3ccc(O)cc3)C(=O)N2)[C@@H](C)O)CCNC(=O)[C@H]([C@@H](C)O)NC(=O)[C@H](CCN)NC(=O)[C@H](CCN)NC1=O [Ex. 130] (H-WCVAS[dS]PLSYCG[Dab]T[Dab][Dab][Dab][dL]L[Dab][Dab]T; disulfide 2-11; lactam 16-C)
- Acinetobacter baumannii 872842 MIC [1]: 0.0625 µg/mL
- Acinetobacter baumannii DSM 30008 MIC [2]: 0.0625 µg/mL
- Escherichia coli 926415 MIC (Escherichia coli 926415): 0.25 µg/mL
- Escherichia coli ATCC 25922 MIC [3]: 0.0625 µg/mL
- Klebsiella pneumoniae 968733 MIC [4]: 0.125 µg/mL
- Klebsiella pneumoniae SSI #3010 MIC [5]: 0.0625 µg/mL
- Pseudomonas aeruginosa ATCC 27853 MIC [6]: 0.25 µg/mL
- Hemolysis at 100 μg/mL [7]: <1%

SMILES: CC(C)C[C@@H]1NC(=O)[C@@H](CC(C)C)NC(=O)[C@H](CCN)NC(=O)[C@@H](NC(=O)[C@H](CCN)NC(=O)[C@@H](NC(=O)[C@H](CCN)NC(=O)CNC(=O)[C@@H]2CSSC[C@H](NC(=O)[C@@H](N)Cc3c[nH]c4ccccc34)C(=O)N[C@@H](C(C)C)C(=O)N[C@@H](C)C(=O)N[C@@H](CO)C(=O)N3CCC[C@@H]3C(=O)N3CCC[C@H]3C(=O)N[C@@H](CC(C)C)C(=O)N[C@@H](CO)C(=O)N[C@@H](Cc3ccc(O)cc3)C(=O)N2)[C@@H](C)O)CCNC(=O)[C@H]([C@@H](C)O)NC(=O)[C@H](CCN)NC(=O)[C@H](CCN)NC1=O [Ex. 131] (H-WCVAS[dP]PLSYCG[Dab]T[Dab][Dab][Dab][dL]L[Dab][Dab]T; disulfide 2-11; lactam 16-C)
- Acinetobacter baumannii 872842 MIC [1]: 0.125 µg/mL
- Acinetobacter baumannii DSM 30008 MIC [2]: 0.125 µg/mL
- Escherichia coli 926415 MIC (Escherichia coli 926415): 0.25 µg/mL
- Escherichia coli ATCC 25922 MIC [3]: 0.0625 µg/mL
- Klebsiella pneumoniae 968733 MIC [4]: 0.25 µg/mL
- Klebsiella pneumoniae SSI #3010 MIC [5]: 0.125 µg/mL
- Pseudomonas aeruginosa ATCC 27853 MIC [6]: 0.5 µg/mL
- Hemolysis at 100 μg/mL [7]: <1%
